Reference: patent publication US5614192A, “T cell receptor peptides as therapeutics for immune-related disease” (Connective Therapeutics, Inc., priority 1993, dated 1997)
Several values for one entry are separate records, joined by “and”; a condition that tells them apart may be missing. Equal values may be shown once. Marks after values point to notes of the source that are not given here. Ends that are not written are not given here.

How the values were obtained:
Gp-S53 = target: T1, Gp-S53 (Cavia porcellus, UniProt P25188); assay: Direct ELISA, antibody reactivity (Example VII); assay type: binding, guinea pig
T1 construct: Gp-S53 (residues 75-84); made in house; host or cells: chemical solid-phase synthesis

EAE = assay: Clinical EAE in rats treated with TCR Vβ8(39-59) before or after onset (Table 22); assay type: in vivo
Protocol: The ability of the TCR Vβ8(39-59) given either SC (in adjuvant) or ID (in saline) to disrupt the disease process when given at various times after induction of EAE with GPBP was tested (Table 22). […] In both cases, with both routes of injection of the peptide, there was a significant reduction in the duration of the disease, though not in the severity or time of onset. The efficacy of the peptide given in saline via the ID route is of particular importance to human therapy, as it is preferred to SC injection in adjuvant.
In Experiment 2, the time of ID administration of the TCR peptide was varied, as was the dose. […] A delay in onset of the disease was also observed. Furthermore, the percentage of animals showing signs of the disease decreased. A larger dose of the peptide (200 μg) appeared less efficacious than the lower dose, possibly due to a short-term overload of the peptide which could have comprised the immune response generated against the TCR. Treatment with a similarly sized peptide corresponding to an irrelevant TCR had no effect on onset, severity or incidence of EAE, but may have reduced the duration somewhat (last line of Table 22).

Gp-S49S = target: T2, Gp-S49S (Cavia porcellus, UniProt P25188); assay: Direct ELISA, antibody reactivity (Example VII); assay type: binding, guinea pig
T2 construct: Peptide Gp-S49S defines region 69-84 of GPBP and has a C-terminal glycine; made in house; host or cells: chemical solid-phase synthesis

TCR Vβ 8(39-59) = assay type: binding, rat
DTH response = assay: Delayed hypersensitivity responses to TCR peptides, ear swelling (Table 26); assay type: in vivo, Lewis rats
[1] = tested on: Vβ8-44-54 reactive T cell clones; assay: Specificity of Vβ8-44-54 reactive T cell clones, proliferation (Table 37); assay type: cell-based, rat
Protocol: Proliferation assays: Proliferation assays were performed in 96-well microtiter plates. 2×10^4 T cells and 10^6 irradiated thymocytes/well were incubated with stimulation medium only, ConA, or antigen at 37C in 7% CO2. The cultures were incubated for 72 h, the last 18 h in the presence of 0.5 Bq ^3 H-Tdr. The cells were harvested onto glass fiber filters and TCR uptake was assessed by liquid scintillation. Mean CPM wre calculated from triplicate wells. The standard deviation from replicate wells varied <10% from the mean values. In some experiments, azide free antibodies to MHC I (OX-18) or MHC II (OX-6, anti-I-A and OX-17, anti-I-E) were added to the cultures to evaluate which MHC molecules were used to restrict the T cell response to TCR Vβ8-44-54 peptide.
Isolation of Vβ8-44-54 reactive T cell clones. To characterize the anti-TCR peptide response on the clonal level, ten clones were isolated and characterized from the initial T cell line. As is shown in Table 37, each of the clones responded strongly to the Vβ8-44-54 peptide with stimulation indices ranging from 10× to 1300×, and weakly or not at all to the Vβ8.2-39-59 or Vβ8.6-39-59 peptides. Three of the four clones challenged with all three of the peptides responded selectively to the consensus Vβ8-44-54 peptide, whereas only one clone (B7) reflected the T cell line pattern of response characterized by response to Vβ8-44-54 >Vβ8.6-39-59 >Vβ8.2-39-59 (Table 37). Loss of viability of the clones precluded individual testing of EAE-protective activity.

DH reaction = assay: Delayed hypersensitivity (DH) ear swelling to TCR peptide (Example VI); assay type: in vivo, Lewis rats; details: to 50 μg TCR Vβ8(39-59) in Vβ8(39-59)-immunized rats
Protocol: The Vβ8(39-59)-immunized rats developed both specific antibodies to the Vβ8(39-59) peptide and a delayed hypersensitivity (DH) response of 0.17 mm ear swelling to 50 μg TCR Vβ8(39-59) peptide.

TCR Vβ8(39-59) peptide = assay type: binding, rat
[2] = tested on: T cell lines derived from rats protected from EAE; assay: Proliferation of LN cells and T cell lines from rats protected by TCR Vβ8 peptide (Table 12); assay type: cell-based, rat
DTH (ear swelling) = assay: DTH to Vβ8.2-39-59 and Vβ8-44-54 in Vβ8-44-54/CFA immunized rats (Table 34); assay type: in vivo; details: rats immunized 14 days with Vβ8-44-54/CFA; net
Protocol: Transfer of DTH and protection: Delayed type hypersensitivity reactions were measured by the ear swelling assay (Offner et al., J. Neuroimmunol. 9: 147 (1984)) 24 and 48 h after injection i.d. of 20 μg antigen.
Values represent mean ± S.D. of net ear swelling in 6 immunized rats.

passive EAE = assay: Treatment of passively induced EAE with TCR Vβ8 peptides (FIGS. 21A, 22); assay type: in vivo, rats
[3] = TCR d. 0, Gp-S49S d. 48, bleed d. 74
[4] = TCR day 0, Gp-S(87-99) d. 44, bleed d. 65, 1:320
[5] = TCR peptide d. 0, Gp-S49S d. 48, bleed d. 74, 1:80
[6] = Exp. 1, 100 μg SC in CFA, day 10
[7] = Exp. 1, 100 μg SC in CFA, day 13

“DMGHGLRLIHYSYDVNSTEKG [TCR Vβ8(39-59), 21-amino acid CDR2 peptide of rat TCR Vβ8]” was tested, and the “Theoretical Absorbance against Gp-S53 normalized to 1:40” value (Gp-S53; [3]) was 910 Absorbance (×10^3), the “Antisera Reactivity Against Gp-S53” value (Gp-S53; [4]) was 46 Absorbance (×10^3) and the “Antisera Reactivity Against Gp-S53” value (Gp-S53; [5]) was 455 Absorbance (×10^3). For the same sequence, the “Day of Onset” value (EAE; Exp. 1, 50 μg ID, day 13) was 13.4 ± 0.5, the “Disease Duration” value (EAE; Exp. 1, 50 μg ID, day 13) was 3.2 ± 0.5 and the “Disease Incidence” value (EAE; Exp. 1, 50 μg ID, day 13) was 5/5. For the same sequence, the “Disease Severity” value (EAE; Exp. 1, 50 μg ID, day 13) was 2.6 ± 0.4, the “Day of Onset” value (EAE; [6]) was 14.0 ± 0.4 and the “Disease Duration” value (EAE; [6]) was 3.2 ± 0.4. For the same sequence, the “Disease Incidence” value (EAE; [6]) was 5/5, the “Disease Severity” value (EAE; [6]) was 2.8 ± 0.4 and the “Day of Onset” value (EAE; [7]) was 13.0 ± 0. For the same sequence, the “Disease Duration” value (EAE; [7]) was 4.0 ± 0, the “Disease Incidence” value (EAE; [7]) was 5/5 and the “Disease Severity” value (EAE; [7]) was 3.0 ± 0. The “Day of Onset” value (EAE; Exp. 2, 50 μg ID, day 7) was 15.0 ± 0.8, the “Disease Duration” value (EAE; Exp. 2, 50 μg ID, day 7) was 2.0 ± 2.0 and the “Disease Incidence” value (EAE; Exp. 2, 50 μg ID, day 7) was 4/6. The “Disease Severity” value (EAE; Exp. 2, 50 μg ID, day 7) was 1.7 ± 1.4, the “Day of Onset” value (EAE; Exp. 2, 50 μg ID, day 14) was 16.0 ± 1 and the “Disease Duration” value (EAE; Exp. 2, 50 μg ID, day 14) was 2.3 ± 2.0. For the same sequence, the “Disease Incidence” value (EAE; Exp. 2, 50 μg ID, day 14) was 4/6, the “Disease Severity” value (EAE; Exp. 2, 50 μg ID, day 14) was 1.7 ± 1.5 and the “Day of Onset” value (EAE; Exp. 2, 50 μg, day 0) was 15.6 ± 2.6. For the same sequence, the “Disease Duration” value (EAE; Exp. 2, 50 μg, day 0) was 2.3 ± 1.6, the “Disease Incidence” value (EAE; Exp. 2, 50 μg, day 0) was 5/6 and the “Disease Severity” value (EAE; Exp. 2, 50 μg, day 0) was 1.8 ± 1.0. For the same sequence, the “Day of Onset” value (EAE; Exp. 2, 200 μg ID, day 13) was 14.0 ± 1.4, the “Disease Duration” value (EAE; Exp. 2, 200 μg ID, day 13) was 3.0 ± 1.2 and the “Disease Incidence” value (EAE; Exp. 2, 200 μg ID, day 13) was 6/6. The “Disease Severity” value (EAE; Exp. 2, 200 μg ID, day 13) was 2.3 ± 0.8, the “Theoretical Absorbance against Gp-S49S normalized to 1:40” value (Gp-S49S; [3]) was 1750 Absorbance (×10^3) and the “Antisera Reactivity Against Gp-S49S” value (Gp-S49S; [4]) was 38 Absorbance (×10^3). The “Antisera Reactivity Against Gp-S49S” value (Gp-S49S; [5]) was 875 Absorbance (×10^3), the “elevation of 26 day antibody responses to Gp-S49S and Gp-S53” value (Gp-S49S; preimmunized with TCR peptide vs rats not treated) was “two to four fold” and the “Antisera Reactivity Against TCR Vβ 8 (39-59)” value (TCR Vβ 8(39-59)) was 629 and 621. For the same sequence, the “48 Hour DTH Response” value (DTH response; GP-BP/CFA immunized rats, ear test Day 12 (EAE onset)) was 11 ± 2, the “48 Hour DTH Response” value (DTH response; Normal or saline/CFA rats, ear test Day 12) was 6 ± 3 and the “48 Hour DTH Response” value (DTH response; TCR Vβ8 peptide/CFA immunized rats, ear test Day 30) was 36 ± 8. The “48 Hour DTH Response” value (DTH response; TCR Vβ814 (so in the source) peptide/CFA immunized rats, ear test Day 30) was 6 ± 3, the “Proliferation Response” value ([1]; Clone B3) was 1.1 CPM/1000 and the “Proliferation Response” value ([1]; Clone B7) was 3 CPM/1000. For the same sequence, the “Proliferation Response” value ([1]; Clone B11) was 0.7 CPM/1000, the “Proliferation Response” value ([1]; Clone D1) was 0.8 CPM/1000 and the “Proliferation Response” value ([1]; Line) was 102 CPM/1000. The “delayed hypersensitivity (DH) response, ear swelling” value (DH reaction) was 0.17 mm, the “absorbance of serum on TCR Vβ8(39-59) peptide (A405)” value (TCR Vβ8(39-59) peptide) was 0.63±0.12 units and the “T Cell Proliferation” value ([2]; 1st value column (head not given; LN cells of protected rats)) was 27 cpm × 10^-3. For the same sequence, the “T Cell Proliferation” value ([2]; 2nd value column (head not given, TCR Vβ8(39-59)-selected line)) was 100 cpm × 10^-3, the “T Cell Proliferation” value ([2]; 4th value column (head not given; mixed TCR- and BP-specific T cells)) was 140 cpm × 10^-3 and the “T Cell Proliferation” value ([2]; +OX-6 (anti I-A)) was 99 cpm × 10^-3. For the same sequence, the “T Cell Proliferation” value ([2]; +OX-8 (anti-CD8)) was 22 cpm × 10^-3, the “T Cell Proliferation” value ([2]; +OX-17 (anti I-E)) was 100 cpm × 10^-3 and the “T Cell Proliferation” value ([2]; +OX-18 (anti class 1)) was 31 cpm × 10^-3. For the same sequence, the “T Cell Proliferation” value ([2]; +W3/25 (anti-CD4)) was 105 cpm × 10^-3, the “T Cell Proliferation” value ([2]; GPBP-selected line) was 1 cpm × 10^-3 and the “Ear Swelling 24 h” value (DTH (ear swelling)) was 36 ± 8 mm/100. The “Ear Swelling 48 h” value (DTH (ear swelling)) was 41 ± 9 mm/100, the “severity and duration of passively induced EAE” value (passive EAE; EAE induced by Vβ8.2+ T cell lines specific for BP) was “marked reduction in the severity and duration of EAE” and the “protection from lethal EAE” value (passive EAE; rat, in vivo) was “protected all of the recipients from lethal EAE”.
